# Article PMC10099431 (ACS Omega, 2023)
# Read-outs that look alike come from different tables or passages of the source.
# Experiments:
# [1] = type: physicochemical; details: 298.15 K; for Gibbs energy of transfer of RST from neat water to the mixture / ΔsolnG°, standard Gibbs free energy of dissolution: 0.1 MPa
# [2] = Equilibrium mole fraction solubility of RST in {PEG400; type: physicochemical
# [3] = cited from earlier work
# [4] = cited from earlier work; remark: listed apart in the source
# [5] = type: physicochemical; details: for 100 δx1,3 (preferential solvation parameter of RST by PEG400) / D (derivative of the Gibbs energy of transfer) / G1,3 (Kirkwood–Buff integral, PEG400–RST) / G2,3 (Kirkwood–Buff integral, water–RST) / Vcor (correlation volume): 298.15 K, 0.1 MPa
compound,measurement,setting,value
"CC(C)c1nc(N(C)S(C)(=O)=O)nc(-c2ccc(F)cc2)c1/C=C/[C@@H](O)C[C@@H](O)CC(=O)[O-].CC(C)c1nc(N(C)S(C)(=O)=O)nc(-c2ccc(F)cc2)c1/C=C/[C@@H](O)C[C@@H](O)CC(=O)[O-].[Ca+2] [RST, (E)-7-[4-(4-fluorophenyl)-6-isopropyl-2-[methyl(methylsulfonyl)amino]pyrimidin-5-yl]-(3R,5S)-3,5-dihydroxyhept-6-enoic acid, calcium salt (2:1)]","Gibbs energy of transfer of RST from neat water to {PEG400 + water} mixtures, range",[1]; all mixtures,−2.39 to −14.24 kJ·mol^–1
same,Gibbs energy of transfer of RST from neat water to the mixture,[1]; w1 = 0.00 (neat water),0.00 kJ·mol^–1
same,"ΔsolnG°, standard Gibbs free energy of dissolution",[1]; w1 = 0.00 (neat water),32.36 kJ·mol^–1
same,Gibbs energy of transfer of RST from neat water to the mixture,[1]; w1 = 0.10 PEG400,–2.39 kJ·mol^–1
same,"ΔsolnG°, standard Gibbs free energy of dissolution",[1]; w1 = 0.10 PEG400,29.97 kJ·mol^–1
same,Gibbs energy of transfer of RST from neat water to the mixture,[1]; w1 = 0.20 PEG400,–3.53 kJ·mol^–1
same,"ΔsolnG°, standard Gibbs free energy of dissolution",[1]; w1 = 0.20 PEG400,28.83 kJ·mol^–1
same,Gibbs energy of transfer of RST from neat water to the mixture,[1]; w1 = 0.30 PEG400,–5.49 kJ·mol^–1
same,"ΔsolnG°, standard Gibbs free energy of dissolution",[1]; w1 = 0.30 PEG400,26.86 kJ·mol^–1
same,Gibbs energy of transfer of RST from neat water to the mixture,[1]; w1 = 0.40 PEG400,–7.93 kJ·mol^–1
same,"ΔsolnG°, standard Gibbs free energy of dissolution",[1]; w1 = 0.40 PEG400,24.42 kJ·mol^–1
same,Gibbs energy of transfer of RST from neat water to the mixture,[1]; w1 = 0.50 PEG400,–8.49 kJ·mol^–1
same,"ΔsolnG°, standard Gibbs free energy of dissolution",[1]; w1 = 0.50 PEG400,23.87 kJ·mol^–1
same,Gibbs energy of transfer of RST from neat water to the mixture,[1]; w1 = 0.60 PEG400,–8.94 kJ·mol^–1
same,"ΔsolnG°, standard Gibbs free energy of dissolution",[1]; w1 = 0.60 PEG400,23.42 kJ·mol^–1
same,Gibbs energy of transfer of RST from neat water to the mixture,[1]; w1 = 0.70 PEG400,–9.46 kJ·mol^–1
same,"ΔsolnG°, standard Gibbs free energy of dissolution",[1]; w1 = 0.70 PEG400,22.90 kJ·mol^–1
same,Gibbs energy of transfer of RST from neat water to the mixture,[1]; w1 = 0.80 PEG400,–10.34 kJ·mol^–1
same,"ΔsolnG°, standard Gibbs free energy of dissolution",[1]; w1 = 0.80 PEG400,22.02 kJ·mol^–1
same,"ΔsolnG°, standard Gibbs free energy of dissolution",[1]; w1 = 0.90 PEG400,21.15 kJ·mol^–1
same,Gibbs energy of transfer of RST from neat water to the mixture,[1]; w1 = 1.00 (neat PEG400),–14.24 kJ·mol^–1
same,"ΔsolnG°, standard Gibbs free energy of dissolution",[1]; w1 = 1.00 (neat PEG400),18.12 kJ·mol^–1
same,solubility at 3 days,[2]; PEG400,6500 µg/mL
same,solubility at 3 days,[2]; PEG400 + water cosolvent mixture,4140 µg/mL
same,elimination half-life,[3]; GastroPlus input parameter,19 h
same,total clearance,[3]; GastroPlus input parameter,0.455 L/h
same,volume of distribution,[3]; GastroPlus input parameter,2.23 L/kg
same,oral bioavailability,[3]; reported,~20%
same,pKa,[4]; GastroPlus input parameter (Table 5),4
same,hydrogen-bonding acceptor counts,[4]; GastroPlus input parameter,10
same,hydrogen-bonding donor counts,[4]; GastroPlus input parameter,3
same,maximum solubility in PEG400,[4]; PEG400,65.7 mg/g
same,aqueous solubility,[4]; as reported in NLM PubChem,8.86 × 10^–2 g/L
same,solubility (mg/mL) in water at 25 (°C),"[4]; water, 25 °C, GastroPlus input parameter",0.33 mg/mL
same,molecular radius r3,[5]; calculated from molar volume,0.5 nm
same,"100 δx1,3 (preferential solvation parameter of RST by PEG400)",[5]; x1 = 0.00,0.00
same,D (derivative of the Gibbs energy of transfer),[5]; x1 = 0.00,–328.34 kJ·mol^–1
same,"G1,3 (Kirkwood–Buff integral, PEG400–RST)",[5]; x1 = 0.00,–2707.6 cm^3·mol^–1
same,"G2,3 (Kirkwood–Buff integral, water–RST)",[5]; x1 = 0.00,–313.7 cm^3·mol^–1
same,Vcor (correlation volume),[5]; x1 = 0.00,1163 cm^3·mol^–1
same,"100 δx1,3 (preferential solvation parameter of RST by PEG400)",[5]; x1 = 0.05,0.01
same,D (derivative of the Gibbs energy of transfer),[5]; x1 = 0.05,–31.52 kJ·mol^–1
same,"G1,3 (Kirkwood–Buff integral, PEG400–RST)",[5]; x1 = 0.05,–488.9 cm^3·mol^–1
same,"G2,3 (Kirkwood–Buff integral, water–RST)",[5]; x1 = 0.05,–491.2 cm^3·mol^–1
same,Vcor (correlation volume),[5]; x1 = 0.05,1589 cm^3·mol^–1
same,"100 δx1,3 (preferential solvation parameter of RST by PEG400)",[5]; x1 = 0.10,0.31
same,D (derivative of the Gibbs energy of transfer),[5]; x1 = 0.10,–9.90 kJ·mol^–1
same,"G1,3 (Kirkwood–Buff integral, PEG400–RST)",[5]; x1 = 0.10,–358.4 cm^3·mol^–1
same,"G2,3 (Kirkwood–Buff integral, water–RST)",[5]; x1 = 0.10,–412.8 cm^3·mol^–1
same,Vcor (correlation volume),[5]; x1 = 0.10,1980 cm^3·mol^–1
same,"100 δx1,3 (preferential solvation parameter of RST by PEG400)",[5]; x1 = 0.15,0.71
same,D (derivative of the Gibbs energy of transfer),[5]; x1 = 0.15,–10.32 kJ·mol^–1
same,"G1,3 (Kirkwood–Buff integral, PEG400–RST)",[5]; x1 = 0.15,–353.1 cm^3·mol^–1
same,"G2,3 (Kirkwood–Buff integral, water–RST)",[5]; x1 = 0.15,–458.2 cm^3·mol^–1
same,Vcor (correlation volume),[5]; x1 = 0.15,2343 cm^3·mol^–1
same,"100 δx1,3 (preferential solvation parameter of RST by PEG400)",[5]; x1 = 0.20,1.05
same,D (derivative of the Gibbs energy of transfer),[5]; x1 = 0.20,–9.89 kJ·mol^–1
same,"G1,3 (Kirkwood–Buff integral, PEG400–RST)",[5]; x1 = 0.20,–346.4 cm^3·mol^–1
same,"G2,3 (Kirkwood–Buff integral, water–RST)",[5]; x1 = 0.20,–492.0 cm^3·mol^–1
same,Vcor (correlation volume),[5]; x1 = 0.20,2680 cm^3·mol^–1
same,"100 δx1,3 (preferential solvation parameter of RST by PEG400)",[5]; x1 = 0.25,1.29
same,D (derivative of the Gibbs energy of transfer),[5]; x1 = 0.25,–8.96 kJ·mol^–1
same,"G1,3 (Kirkwood–Buff integral, PEG400–RST)",[5]; x1 = 0.25,–339.9 cm^3·mol^–1
same,"G2,3 (Kirkwood–Buff integral, water–RST)",[5]; x1 = 0.25,–513.6 cm^3·mol^–1
same,Vcor (correlation volume),[5]; x1 = 0.25,2997 cm^3·mol^–1
same,"100 δx1,3 (preferential solvation parameter of RST by PEG400)",[5]; x1 = 0.30,1.45
same,D (derivative of the Gibbs energy of transfer),[5]; x1 = 0.30,–7.95 kJ·mol^–1
same,"G1,3 (Kirkwood–Buff integral, PEG400–RST)",[5]; x1 = 0.30,–334.6 cm^3·mol^–1
same,"G2,3 (Kirkwood–Buff integral, water–RST)",[5]; x1 = 0.30,–529.0 cm^3·mol^–1
same,Vcor (correlation volume),[5]; x1 = 0.30,3297 cm^3·mol^–1
